Here are results for 21 compounds from patent publication US20260028335A1, “NOVEL ISOTHIAZOL-3-YL AND ISOXAZOL-3-YL SULFONAMIDE COMPOUNDS” (Hoffmann-La Roche Inc., priority 2022, published 2026).

Sequence of human GPR17 short isoform (Q13304 29-367): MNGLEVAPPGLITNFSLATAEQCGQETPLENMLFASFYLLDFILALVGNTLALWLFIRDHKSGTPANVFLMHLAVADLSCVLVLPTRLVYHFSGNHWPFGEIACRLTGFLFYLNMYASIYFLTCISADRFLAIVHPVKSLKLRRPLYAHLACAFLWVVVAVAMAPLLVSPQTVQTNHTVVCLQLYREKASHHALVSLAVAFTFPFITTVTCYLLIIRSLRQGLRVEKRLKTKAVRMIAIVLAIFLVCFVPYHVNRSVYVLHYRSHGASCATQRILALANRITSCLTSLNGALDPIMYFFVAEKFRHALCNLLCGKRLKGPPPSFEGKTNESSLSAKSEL

In this experiment the target is human GPR17 short isoform (Homo sapiens, UniProt Q13304). Nature of the experiment: GPR17 cAMP assay (hGPR17 cAMP, antagonist mode, TR-FRET). In kind it is cell-based. The note with it: CHO-K1 cells stably expressing human GPR17 short isoform; EC80 of agonist MDL29,951; forskolin 15 μM; IBMX 0.5 mM. The protocol:
GPR17 cAMP Assay Protocol:
CHO-K1 cells stably expressing vector containing untagged human GPR17 short isoform (Roche) were cultured at 37° C./5% CO2 in DMEM (Dulbecco's Modified Eagle Medium):F-12 (1:1) supplemented with 10% foetal bovine serum and 400 μg/ml Geneticin.
Changes in intracellular cyclic adenosine monophosphate (cAMP) levels were quantified using the Nano-TRF Detection Assay kit (Roche Diagnostics, Cat. No. 05214386001). This assay allows for direct cAMP quantification in a homogeneous solution. cAMP is detected based on time-resolved fluorescence energy transfer (TR-FRET) and competitive binding of ruthenylated cAMP and endogenous cAMP to an anti-cAMP monoclonal antibody labeled with AlexaFluor-700. The Ruthenium complex serves as the FRET donor and transfers energy to AlexaFluor-700. The FRET signal is inversely proportional to the cAMP concentration.
CHO-GPR17S cells were detached with Accutase and resuspended in assay buffer consisting of Hank's Balanced Salt Solution (HBSS), 10 mM HEPES (4-(2-hydroxyethyl) piperazine-1-ethanesulfonic acid solution) and 0.1% bovine serum albumin (pH 7.4). The cells were seeded in black 384-well plates (Corning) at a density of 10,000 cells/20 μl assay buffer until the addition of compounds.
Test antagonist compounds were serially diluted in dimethyl sulfoxide (DMSO) and spotted in 384-well plates. The compounds were then diluted in HBSS buffer supplemented with an EC80 concentration of MDL29,951 (3-(2-Carboxy-4,6-dichloroindol-3-yl)propionic acid) (GPR17 agonist) plus 3-Isobutyl-1-methylxanthine (IBMX) (0.5 mM final concentration) and added to the cells at room temperature. Forskolin (15 μM final concentration) was added 5 minutes after the test compounds and the cells were incubated at room temperature for 30 minutes. The assay was stopped by adding cAMP detection mix (containing detergents for cell lysis) for 90 minutes at room temperature.
Cellular cAMP was measured using a Paradigm reader (Molecular Devices). The raw data was used to calculate the FRET signal based on the assay's P-factor as per cAMP kit instructions. The data was normalized to the maximal activity of a reference antagonist and dose response curves were fitted to the percent activity of the test compounds using a sigmoidal dose response model (Genedata Screener).
Results in the hGPR17 cAMP assay are provided for compounds of formula I in Table 1
In general terms: cAMP levels reflect the balance of adenylyl cyclase and phosphodiesterase activity.
`CCCc1snc(NS(=O)(=O)c2c[nH]c3cc(Cl)ccc23)c1Cl` [Example 1, 6-chloro-N-(4-chloro-5-propyl-isothiazol-3-yl)-1H-indole-3-sulfonamide]: the IC50 – broadly, the concentration needed to halve the response being measured – was 19 nM.
Then `O=S(=O)(Nc1nsc(C2CC2)c1Cl)c1c[nH]c2cc(Cl)ccc12` [Example 2, 6-chloro-N-(4-chloro-5-cyclopropyl-isothiazol-3-yl)-1H-indole-3-sulfonamide], with 51 nM.
Then `O=S(=O)(Nc1nsc(C2CC2)c1Cl)c1c[nH]c2nc(Cl)ccc12` [Example 3, 6-chloro-N-(4-chloro-5-cyclopropyl-isothiazol-3-yl)-1H-pyrrolo[2,3-b]pyridine-3-sulfonamide], with 131 nM; and `O=S(=O)(Nc1nsc(C2CC2)c1Cl)c1c[nH]c2nc(Br)ccc12` [Example 4, 6-bromo-N-(4-chloro-5-cyclopropyl-isothiazol-3-yl)-1H-pyrrolo[2,3-b]pyridine-3-sulfonamide], with 103 nM.
The result for `Cc1snc(NS(=O)(=O)c2c[nH]c3cc(Cl)ccc23)c1Cl` [Example 5, 6-chloro-N-(4-chloro-5-methyl-isothiazol-3-yl)-1H-indole-3-sulfonamide] reads 106 nM.
Compound `Cc1snc(NS(=O)(=O)c2c[nH]c3cc(Cl)ccc23)c1C` [Example 6, 6-chloro-N-(4,5-dimethylisothiazol-3-yl)-1H-indole-3-sulfonamide] came in with an IC50 of 216 nM.
`CCc1onc(NS(=O)(=O)c2c[nH]c3cc(Cl)ccc23)c1C` [Example 7, 6-chloro-N-(5-ethyl-4-methyl-isoxazol-3-yl)-1H-indole-3-sulfonamide] came in with an IC50 of 452 nM.
As for `CCc1snc(NS(=O)(=O)c2c[nH]c3cc(Cl)ccc23)c1Cl` [Example 8, 6-chloro-N-(4-chloro-5-ethyl-isothiazol-3-yl)-1H-indole-3-sulfonamide], the IC50 amounted to 105 nM.
The result for `CCc1c(NS(=O)(=O)c2c[nH]c3cc(Cl)ccc23)nsc1C` [Example 9, 6-chloro-N-(4-ethyl-5-methyl-isothiazol-3-yl)-1H-indole-3-sulfonamide] reads 659 nM.
The result for `COc1snc(NS(=O)(=O)c2c[nH]c3cc(Cl)ccc23)c1Cl` [Example 10, 6-chloro-N-(4-chloro-5-methoxy-isothiazol-3-yl)-1H-indole-3-sulfonamide] reads 113 nM; that for `CCOc1snc(NS(=O)(=O)c2c[nH]c3cc(Cl)ccc23)c1Cl` [Example 11, 6-chloro-N-(4-chloro-5-ethoxy-isothiazol-3-yl)-1H-indole-3-sulfonamide], 54 nM; that for `N#CCCc1snc(NS(=O)(=O)c2c[nH]c3cc(Cl)ccc23)c1Cl` [Example 12, 6-chloro-N-[4-chloro-5-(2-cyanoethyl)isothiazol-3-yl]-1H-indole-3-sulfonamide], 74 nM.
Then `Cc1cc(NS(=O)(=O)c2c[nH]c3cc(Cl)ccc23)ns1` [Example 13, 6-chloro-N-(5-methylisothiazol-3-yl)-1H-indole-3-sulfonamide], with 629 nM; and `Cc1snc(NS(=O)(=O)c2c[nH]c3cc(Cl)ccc23)c1C1CC1` [Example 14, 6-chloro-N-(4-cyclopropyl-5-methyl-isothiazol-3-yl)-1H-indole-3-sulfonamide], with 1110 nM.
`Cc1snc(NS(=O)(=O)c2c[nH]c3cc(Cl)ccc23)c1C#N` [Example 15, 6-chloro-N-(4-cyano-5-methyl-isothiazol-3-yl)-1H-indole-3-sulfonamide] had an IC50 of 499 nM.
Turning to `COc1c(NS(=O)(=O)c2c[nH]c3cc(Cl)ccc23)nsc1C` [Example 16, 6-chloro-N-(4-methoxy-5-methyl-isothiazol-3-yl)-1H-indole-3-sulfonamide], the IC50 was found to be 857 nM.
Then `CCCc1snc(NS(=O)(=O)c2c[nH]c3cc(Cl)ccc23)c1OC` [Example 17, 6-chloro-N-(4-methoxy-5-propyl-isothiazol-3-yl)-1H-indole-3-sulfonamide], with 78 nM; and `CCCc1onc(NS(=O)(=O)c2c[nH]c3cc(Cl)ccc23)c1C` [Example 18, 6-chloro-N-(4-methyl-5-propyl-isoxazol-3-yl)-1H-indole-3-sulfonamide], with 815 nM.
The result for `Cc1onc(NS(=O)(=O)c2c[nH]c3cc(Cl)ccc23)c1C` [Example 19, 6-chloro-N-(4,5-dimethylisoxazol-3-yl)-1H-indole-3-sulfonamide] reads 550 nM; that for `Cc1onc(NS(=O)(=O)c2c[nH]c3cc(Cl)ccc23)c1Cl` [Example 20, 6-chloro-N-(4-chloro-5-methyl-isoxazol-3-yl)-1H-indole-3-sulfonamide], 404 nM; that for `Cc1onc(NS(=O)(=O)c2c[nH]c3cc(Cl)ccc23)c1Br` [Example 21, N-(4-bromo-5-methyl-isoxazol-3-yl)-6-chloro-1H-indole-3-sulfonamide], 315 nM.
